Data reported in patent US20260226493A1, “HERBICIDE RESISTANT PLANTS” (SYNGENTA CROP PROTECTION AG, priority 2023, published 2026).
pIC50: −log10 of the molar value.

Experiments:
[1] = system: D4539 (Escherichia coli MTP BioA) containing tobacco plants; assay: Visual herbicide damage score on transgenic tobacco D4539 (pBin TMV MTP EcBioA); format: in vivo; conditions: 600 gai/ha
Source text: In order to determine if the overexpressed gene detailed in Example 3 confers resistance to BIO3-BIO1 inhibiting compounds when expressed in plants, GM tobacco lines were produced and tested with BIO3-BIO1 inhibiting compounds. Transgenic tobacco plants expressing the Escherichia coli BioA gene with (SEQ ID NO:203) and without a mitochondrial signal peptide (SEQ ID NO: 202).
Populations of transgenic tobacco comprising 20-30 transgenic events per plant transformation constructs were generated as described in Example 1. These lines were clonally propagated and 1 clone per event was sprayed with 600 g ai/ha compound L or A+0.2% Genapol X080 with a spray volume of 200 L/Ha (“g ai/ha” refers to grams of active compound per hectare).
[…] A score of 0 indicates no visible damage or stunting whereas a score of 100 indicates a complete death of the plant. 20 transgenic events (i.e. individual transgenic plants) from each GM tobacco line were transplanted to soil 1 week prior to spraying with BIO3-BIO1 inhibiting compounds. WT tobacco was included as a control.

[2] = target: T1, Arabidopsis thaliana BioDA variant enzymes (Arabidopsis thaliana, UniProt B0F481); assay: biochemical; conditions: WT Arabidopsis thaliana BioDA (SEQ ID NO 294); read-out: IC50
T1 construct: with the predicted N-terminal mitochondrial transit peptide removed; 6xHis-tag (N); thrombin cleavage site (N); made in house; host or cells: E. coli BL21 (DE3) bioA
Procedure: (§1) These plasmids were then expressed in E. coli BL21 (DE3) bioA with 50 μg/mL kanamycin and 25 μg/mL chloramphenicol selection. Overnight cultures grown at 37° C. were used to inoculate 8×500 mL AIM in shake flasks at a ratio of 1:100. Cultures were grown at 37° C., 200 rpm for 3.5 hours and then overnight at 20° C. Cells were harvested by centrifugation for 30 minutes at 10 000 g. Cells were stored at −80° C. until extraction. 30 g of cell pellet from was thawed in 120 mL of IMAC buffer A (20 mM HEPES pH7.5, 25 mM imidazole, 500 mM sodium chloride, 0.15 mM pyridoxal phosphate, 0.5 mM TCEP, 1× complete Protease Inhibitor Tablet (Roche)). The resuspension was passed through a cell disrupter at 18 000 PSI and centrifuged at 50 000 g for 25 minutes at 4° C. The His-tagged BIO3-BIO1 protein was purified from the extract supernatant on an AKTA avant chromatography system (Cytiva) using a HisTrap FF column and eluted in IMAC buffer B ((20 mM HEPES pH7.5, 500 mM imidazole, 500 mM sodium chloride, 0.15 mM pyridoxal phosphate, 0.5 mM TCEP) followed by SEC using a HiLoad 26/60 Superdex200 column in SEC buffer (25 mM HEPES pH7.5, 150 mM sodium chloride, 0.15 mM pyridoxal phosphate, 0.5 mM TCEP). Protein concentration was measured and calculated using the absorbance at 280 nm. Extracts were diluted 1 in 4 and 10 uL was analysed by SDS PAGE.
(§2) To measure BIO3-BIO1 mutant enzyme activity in the presence of herbicide, herbicides were incubated with 20 μL of enzyme mix (100 mM EPPS pH 8.6, 0.1 mM pyridoxal phosphate, 0.1 mg/mL BSA, 50 nM BIO3-BIO1 enzyme) for 10 minutes at 20° C. in a well of a 96-well half-area black plate, followed by the addition of 20 μL of substrate mix (final concentration of 100 mM EPPS pH 8.6, 0.1 mM pyridoxal phosphate, 0.1 mg/mL BSA, 100 μM spermidine, 20 μM KAPA, 100 mM NaCO3) and further incubation for 75 minutes at 20° C. The reaction was terminated by the addition of 50 μL of derivatisation mix (final concentration of 250 mM borate NaOH pH 9.4, 3.6 mM o-phthalaldehyde, 7 mM β-mercaptoethanol, 17% (v/v) ethanol, 3.6% (v/v) methanol). The fluorescent product produced by the reaction of DAPA with o-phthalaldehyde and 7 mM β-mercaptoethanol was measured at 470 nm after excitation at 410 nm.
(§3) For IC50 calculations, appropriate dose responses of compounds L, M, B, K and G were used. Calculated percentage inhibitions were then input into GraphPad Prism 7 and IC50s calculated using the non-linear regression (vs. normalised response) equation.

[3] = target: T2, Arabidopsis thaliana BioDA variant enzymes (Arabidopsis thaliana, UniProt B0F481, C388D); assay: biochemical
T2 construct: with the predicted N-terminal mitochondrial transit peptide removed; 6xHis-tag (N); thrombin cleavage site (N); made in house; host or cells: E. coli BL21 (DE3) bioA
T2 sequence (B0F481 24-833 C388D): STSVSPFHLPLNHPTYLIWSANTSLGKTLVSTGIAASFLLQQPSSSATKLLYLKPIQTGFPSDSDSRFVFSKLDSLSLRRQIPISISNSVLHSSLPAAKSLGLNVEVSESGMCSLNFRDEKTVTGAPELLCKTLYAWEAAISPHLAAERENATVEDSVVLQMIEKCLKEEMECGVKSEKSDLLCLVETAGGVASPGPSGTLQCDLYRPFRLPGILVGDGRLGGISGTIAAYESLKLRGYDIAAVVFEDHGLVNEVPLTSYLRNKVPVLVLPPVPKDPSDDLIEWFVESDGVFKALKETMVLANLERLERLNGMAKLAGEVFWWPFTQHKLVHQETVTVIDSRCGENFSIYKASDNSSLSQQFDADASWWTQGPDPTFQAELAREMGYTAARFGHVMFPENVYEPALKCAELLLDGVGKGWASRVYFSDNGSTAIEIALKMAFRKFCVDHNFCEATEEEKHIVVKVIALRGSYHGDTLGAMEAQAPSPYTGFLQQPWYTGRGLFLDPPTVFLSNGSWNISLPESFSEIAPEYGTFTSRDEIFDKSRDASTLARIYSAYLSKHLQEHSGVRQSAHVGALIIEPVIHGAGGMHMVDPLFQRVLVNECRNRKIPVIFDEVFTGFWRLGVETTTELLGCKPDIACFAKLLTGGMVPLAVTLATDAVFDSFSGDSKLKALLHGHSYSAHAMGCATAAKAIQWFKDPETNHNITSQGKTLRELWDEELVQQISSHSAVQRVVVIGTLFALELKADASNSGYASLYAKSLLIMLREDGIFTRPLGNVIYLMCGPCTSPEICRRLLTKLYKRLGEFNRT
Procedure: as §1, §2, §3

With `CCOC(=O)c1nn(-c2ccc3c(c2)OC(F)(F)C(F)(F)O3)c2cccc(C(C)=O)c2c1=O` [Compound A, ethyl 5-acetyl-4-oxo-1-(2,2,3,3-tetrafluoro-1,4-benzodioxin-6-yl)cinnoline-3-carboxylate] as the compound, how does the “percentage of damage (herbicide damage score)” value (“percentage of damage” below) ([1]; D4539 event 8385, 7 DAT) read?
The value was 5%.

What about the “percentage of damage” value ([1]; D4539 event 8385, 14 DAT) of the same compound?
Its value is 0%.

And the “percentage of damage” value ([1]; D4539 event 8385, 21 DAT)?
Its value is 0%.

And the “percentage of damage” value ([1]; D4539 event 8386, 7 DAT)?
Its value is 3%.

And the “percentage of damage” value ([1]; D4539 event 8386, 14 DAT)?
Its value is 0%.

And the “percentage of damage” value ([1]; D4539 event 8386, 21 DAT)?
The value was 0%.

What about the “percentage of damage” value ([1]; D4539 event 8399, 7 DAT) of the same compound?
Its value is 2%.

What about the “percentage of damage” value ([1]; D4539 event 8399, 14 DAT) of the same compound?
The value was 0%.

And the “percentage of damage” value ([1]; D4539 event 8399, 21 DAT)?
Its value is 0%.

What about the “percentage of damage” value ([1]; D4539 event 8402, 7 DAT) of the same compound?
Its value is 2%.

And the “percentage of damage” value ([1]; D4539 event 8402, 14 DAT)?
Its value is 0%.

And the “percentage of damage” value ([1]; D4539 event 8402, 21 DAT)?
Its value is 0%.

And the “percentage of damage” value ([1]; D4539 event 8414, 7 DAT)?
Its value is 7%.

And the “percentage of damage” value ([1]; D4539 event 8414, 14 DAT)?
The value was 30%.

And the “percentage of damage” value ([1]; D4539 event 8414, 21 DAT)?
Its value is 35%.

What about the “percentage of damage” value ([1]; D4539 event 8415, 7 DAT) of the same compound?
Its value is 7%.

And the “percentage of damage” value ([1]; D4539 event 8415, 14 DAT)?
Its value is 0%.

And the “percentage of damage” value ([1]; D4539 event 8415, 21 DAT)?
Its value is 0%.

What about the “percentage of damage” value ([1]; D4539 event 8417, 7 DAT) of the same compound?
Its value is 2%.

What about the “percentage of damage” value ([1]; D4539 event 8417, 14 DAT) of the same compound?
Its value is 5%.

What about the “percentage of damage” value ([1]; D4539 event 8417, 21 DAT) of the same compound?
The value was 10%.

And the “percentage of damage” value ([1]; D4539 event 8418, 7 DAT)?
Its value is 4%.

And the “percentage of damage” value ([1]; D4539 event 8418, 14 DAT)?
The value was 10%.

And the “percentage of damage” value ([1]; D4539 event 8418, 21 DAT)?
The value was 20%.

What about the “percentage of damage” value ([1]; D4539 event 8423, 7 DAT) of the same compound?
The value was 2%.

And the “percentage of damage” value ([1]; D4539 event 8423, 14 DAT)?
Its value is 20%.

What about the “percentage of damage” value ([1]; D4539 event 8423, 21 DAT) of the same compound?
The value was 30%.

What about the “percentage of damage” value ([1]; D4539 event 8424, 7 DAT) of the same compound?
The value was 55%.

What about the “percentage of damage” value ([1]; D4539 event 8424, 14 DAT) of the same compound?
Its value is 80%.

What about the “percentage of damage” value ([1]; D4539 event 8424, 21 DAT) of the same compound?
Its value is 85%.

What about the “percentage of damage” value ([1]; D4539 event 8426, 7 DAT) of the same compound?
The value was 2%.

And the “percentage of damage” value ([1]; D4539 event 8426, 14 DAT)?
The value was 0%.

What about the “percentage of damage” value ([1]; D4539 event 8426, 21 DAT) of the same compound?
Its value is 0%.

What about the “percentage of damage” value ([1]; D4539 event 8433, 7 DAT) of the same compound?
The value was 4%.

What about the “percentage of damage” value ([1]; D4539 event 8433, 14 DAT) of the same compound?
The value was 0%.

And the “percentage of damage” value ([1]; D4539 event 8433, 21 DAT)?
The value was 0%.

And the “percentage of damage” value ([1]; D4539 event 8434, 7 DAT)?
The value was 4%.

What about the “percentage of damage” value ([1]; D4539 event 8434, 14 DAT) of the same compound?
Its value is 5%.

What about the “percentage of damage” value ([1]; D4539 event 8434, 21 DAT) of the same compound?
Its value is 15%.

And the “percentage of damage” value ([1]; D4539 event 8438, 7 DAT)?
The value was 10%.

What about the “percentage of damage” value ([1]; D4539 event 8438, 14 DAT) of the same compound?
Its value is 75%.

And the “percentage of damage” value ([1]; D4539 event 8438, 21 DAT)?
Its value is 65%.

And the “percentage of damage” value ([1]; D4539 event 8439, 7 DAT)?
The value was 2%.

And the “percentage of damage” value ([1]; D4539 event 8439, 14 DAT)?
The value was 10%.

What about the “percentage of damage” value ([1]; D4539 event 8439, 21 DAT) of the same compound?
The value was 0%.

What about the “percentage of damage” value ([1]; D4539 event 8447, 7 DAT) of the same compound?
Its value is 2%.

And the “percentage of damage” value ([1]; D4539 event 8447, 14 DAT)?
The value was 0%.

What about the “percentage of damage” value ([1]; D4539 event 8447, 21 DAT) of the same compound?
Its value is 0%.

And the “percentage of damage” value ([1]; D4539 event 8448, 7 DAT)?
The value was 2%.

And the “percentage of damage” value ([1]; D4539 event 8448, 14 DAT)?
Its value is 0%.

What about the “percentage of damage” value ([1]; D4539 event 8448, 21 DAT) of the same compound?
Its value is 0%.

What about the “percentage of damage” value ([1]; D4539 event 8460, 7 DAT) of the same compound?
The value was 3%.

And the “percentage of damage” value ([1]; D4539 event 8460, 14 DAT)?
Its value is 0%.

What about the “percentage of damage” value ([1]; D4539 event 8460, 21 DAT) of the same compound?
The value was 0%.

What about the “percentage of damage” value ([1]; D4539 event 8461, 7 DAT) of the same compound?
Its value is 15%.

What about the “percentage of damage” value ([1]; D4539 event 8461, 14 DAT) of the same compound?
Its value is 80%.

What about the “percentage of damage” value ([1]; D4539 event 8461, 21 DAT) of the same compound?
The value was 85%.

And the “percentage of damage” value ([1]; D4539 event 8462, 7 DAT)?
Its value is 2%.

And the “percentage of damage” value ([1]; D4539 event 8462, 14 DAT)?
The value was 0%.

And the “percentage of damage” value ([1]; D4539 event 8462, 21 DAT)?
Its value is 0%.

With `CC(O)C(N)CCCCC(=O)O.Cl` (centres unmarked) [Compound B, [5-carboxy-1-(1-hydroxyethyl)pentyl]ammonium chloride] as the compound, how does the pIC50 [2] read?
The pIC50 was 5.55.

And the pIC50 [3]?
The pIC50 was 4.53.
